Data reported in PubChem BioAssay (NCI).
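Cells were grown in 96-well plates and exposed to each compound for 48 hours at five concentrations; endpoints were interpolated linearly between bracketing concentrations, or set to the highest concentration if not reached. Here, GI50 denotes the concentration required for 50% inhibition of growth. TGI: concentration producing complete growth inhibition.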

Experiments:
Assay in all cases: DTP human tumour cell line panel, 48 h
K-562 leukemia = system: K-562 leukemia
T-47D breast = system: T-47D breast
LOX IMVI melanoma = system: LOX IMVI melanoma
CCRF-CEM leukemia = system: CCRF-CEM leukemia
HL-60(TB) leukemia = system: HL-60(TB) leukemia
UACC-257 melanoma = system: UACC-257 melanoma
PC-3 prostate = system: PC-3 prostate
CAKI-1 renal = system: CAKI-1 renal
MALME-3M melanoma = system: MALME-3M melanoma
OVCAR-5 ovarian = system: OVCAR-5 ovarian

Structure (SMILES)	GI50 (K-562 leukemia) [µM]	TGI (K-562 leukemia) [µM]	GI50 (T-47D breast) [µM]	TGI (T-47D breast) [µM]	GI50 (LOX IMVI melanoma) [µM]	TGI (LOX IMVI melanoma) [µM]	GI50 (CCRF-CEM leukemia) [µM]	TGI (CCRF-CEM leukemia) [µM]	GI50 (HL-60(TB) leukemia) [µM]	TGI (HL-60(TB) leukemia) [µM]	GI50 (UACC-257 melanoma) [µM]	TGI (UACC-257 melanoma) [µM]	GI50 (PC-3 prostate) [µM]	TGI (PC-3 prostate) [µM]	GI50 (CAKI-1 renal) [µM]	TGI (CAKI-1 renal) [µM]	GI50 (MALME-3M melanoma) [µM]	TGI (MALME-3M melanoma) [µM]	GI50 (OVCAR-5 ovarian) [µM]	TGI (OVCAR-5 ovarian) [µM]
COc1cc(-n2cc(-c3ccc(F)cc3)nc2SCc2ccccc2)cc(OC)c1OC	8.1	> 100	9.57	> 100	> 100	> 100	17.7	43.8	> 100	> 100	> 100	> 100	9.48	> 100	> 100	> 100	> 100	> 100	> 100	> 100
Cc1ccc2c(c1)c1nc3cc(C)c(C)cc3nc1n2CCN(C)C	2.6	50.3	3.34	17.7	1.45	4.45	2.05	10.6	2.95	9.65	2.2	5.48	2.32	6.82	1.33	4.46	1.73	3.76	2.4	7.65
COc1cc(C(=O)N2N=C(c3ccc(S(C)(=O)=O)cc3)CC2c2ccco2)cc(OC)c1OC (stereo unspecified)	4.81	> 100	3.79	> 100	5.85	> 100	2.5	> 25.4	1.41	4.47	> 100	> 100	2.93	> 100	4.94	> 90.8	5.01	> 100	> 80.2	> 100
Clc1cc2c(cc1Cl)Oc1cc(Cl)c(Cl)cc1O2	> 0.625	> 0.625	> 0.625	> 0.625	> 0.625	> 0.625	> 0.625	> 0.625	> 0.625	> 0.625			> 0.625	> 0.625	> 0.625	> 0.625	> 0.625	> 0.625	> 0.625	> 0.625
C=C(C)C1Cc2c(cc(OC)c3c(=O)c4cccc(O)c4oc23)O1 (stereo unspecified)		> 100		40		29.6		> 100		> 100		> 100		> 100		30.2		48.4		> 100
COc1ccc2c(c1)=C(C=C1C=CN(O)C=C1)C(=O)N=2	3.55	> 100	6.34	> 68.7	23.9	> 67.3	25.3	> 79.1	22.4	49.9	44.7	> 100	29.5	> 100	28.2	> 89.6	24.3	55.9	12.7	50.8
O=C1C2C(C(=O)[N]1[Hg][c]1cccs1)C1(Cl)C(Cl)=C(Cl)C2(Cl)C1(Cl)Cl (stereo unspecified)	0.291	3.41	0.57	2.94	0.708	1.94	0.29		1.29	4.63	1.28	2.83	1.72	4.18	1.29	2.64	1.22	2.79	1.85	3.61
O=C(Nc1ccc(F)cc1)Nc1ccccc1CNc1nc(Nc2ccc(OCCN3CCCC3)cc2)ncc1Cl	1.2	3.06	1.48	4.28	0.914	1.69	1.6	5.93	1.07	2.31	1.07	2.35	1.67	6.19	2.87	9.25	0.81	1.55	1.76	6.88
CN(Cc1ccc(Cl)cc1)c1ccc(CO)c(Cl)c1	3.79	> 65.7	0.764	5.4	4.48	16.7	15.1	> 66.3	5.28	42.4	0.515	2.45	12.8	31	1.43	12	13.4	29.2	0.644	4.67
CCN1/C(=C/C=C/c2n(-c3ccccc3)c3ccc(-c4nc5ccccc5s4)cc3[n+]2CC)N(c2ccccc2)c2ccc(-c3nc4ccccc4s3)cc21	0.471	> 50	0.746	> 50	1.22	> 50	2.69	> 50	0.464	> 50	0.539	> 15.4	0.284	> 50			0.161	0.838	1.53	> 50
COc1cc2c(cc1OCCCCCOc1cc3c(cc1OC)C(=O)N1CC(F)C[C@H]1C=N3)N=C[C@@H]1CC(F)CN1C2=O (stereo partly specified)	0.0325	1.94	0.265	14			< 0.01	0.0713	< 0.01	2.39	0.165	0.444	0.295	1.49	< 0.01	0.411	0.124	0.733	0.117	3.25
Cc1ccc(NC(=O)Cc2ccc(/C=C/C(=O)c3ncc[nH]3)cc2)cc1			6.47	> 25	1.29	6.76	4.67	> 25	5.88	> 25	> 25	> 25	7.1	> 25	9.62	> 25	> 25	> 25	6.84	> 25
